Laboratory results: US20250064762A1, “A SUBSTITUTED AROMATIC DICARBONIC ACID AMIDE AS AN INHIBITOR OF THE FERROPTOSIS SUPPRESSOR PROTEIN-1 (FSP1)” (JULIUS-MAXIMILIANS-UNIVERSITÄT WÜRZBURG, priority 2021, published 2025)

Key:
cancer cell lines = experiment: FIN56 toxicity in a panel of cancer cell lines; type: cell-based, human, mouse, rat
Description: Cell culture media and supplements were from Thermo Fisher Scientific, unless specified otherwise. Mouse embryonic fibroblasts (MEFs) were generated from Pgp-wildtype (Pgp^fl/fl) or heterozygous Pgp-inactivated mouse embryos (Pgp^fl/D34N) as described (Segerer et al., 2016). Human embryonic kidney HEK-AD293 (HEK293) cells (Stratagene), HT-1080 human fibrosarcoma cells, PC3 and Du145 human prostate carcinoma cells, HepG2 human hepatocytic carcinoma (HCC) cells, Hepa 1-6 murine HCC, 4T1 mouse breast carcinoma, Colon-26 mouse colon carcinoma, C6 rat glioblastoma and RAW264.7 mouse monocytes/macrophages (all from LGC Standards) were cultured in Dulbecco's modified Eagle's medium (DMEM, 4.5 g/L glucose) supplemented with 10% (v/v) heat-inactivated fetal calf serum (FCS), 2 mM L-glutamine, 100 U/mL penicillin and 100 μg/mL streptomycin (Pen/Strep). Hepa-1c1c7 murine HCC were grown in alpha MEM without nucleosides (Gibco, cat. no. 31095029) supplemented with 10% FCS and Pen/Strep. JTC-27 rat HCC were cultured in RPMI-1640 with 10% FCS and Pen/Strep. […]
Cells were seeded onto 96-well plates (5,000 cells per well), and treated with serial dilutions of ferroptosis-inducing compounds (erastin, BSO, RSL3, FIN56) or cytotoxic drugs (staurosporine, nocodazole, tunicamycin, paclitaxel, etoposide, menadione, rotenone, FCCP, carboplatin) in the absence or presence of CPBA or iFSP1 (100 μM or 10 μM, respectively; unless stated otherwise) or the DMSO solvent control. Ferroptotic cell death was evaluated by incubating in the absence or presence of liproxstatin-1 (100 nM), ferrostatin-1 (200 nM), or deferoxamine (100 μM). Cell viability was assessed after 16 h using AquaBluer as an indicator of viable cells according to the manufacturer's recommendations (MultiTarget Pharmaceuticals, LLC). Fluorescence (excitation, 540 nm; emission, 590 nm) was analyzed on a Clariostar microplater reader. […]

human FSP1 = target: T1, human FSP1 (Homo sapiens, UniProt Q9BRQ8); experiment: Biolayer interferometry binding kinetics, human FSP1; conditions: 25° C.
T1 construct: His6 (N, cleaved yes); made in house; host or cells: Escherichia coli BL21 pG-Tf2
T1 sequence (Q9BRQ8 1-373): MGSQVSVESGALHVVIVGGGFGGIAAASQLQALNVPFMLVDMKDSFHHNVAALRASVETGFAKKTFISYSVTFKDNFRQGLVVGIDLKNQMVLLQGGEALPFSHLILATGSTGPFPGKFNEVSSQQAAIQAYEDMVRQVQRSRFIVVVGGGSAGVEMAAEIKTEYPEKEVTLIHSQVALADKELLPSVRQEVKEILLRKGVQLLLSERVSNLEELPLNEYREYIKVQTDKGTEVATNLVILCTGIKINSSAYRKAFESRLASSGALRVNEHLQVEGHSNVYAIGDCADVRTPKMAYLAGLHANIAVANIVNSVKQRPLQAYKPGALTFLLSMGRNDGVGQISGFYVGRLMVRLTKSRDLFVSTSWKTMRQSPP
Experimental: Purified, AviTag-fused mFSP1 or hFSP1 were enzymatically biotinylated with the E. coli biotin ligase BirA. To this end, FSP1 proteins (48 μM) were incubated with purified GST-BirA in the presence of ATP and D-biotin (Sigma Aldrich) as described (Fairhead et al., 2015). GST-BirA was removed using glutathione Sepharose 4 Fast Flow (GE Healthcare), and samples were dialyzed against TNM (pH 7.4) to remove free biotin.
Biotinylated, AviTag-fused mFSP1 or hFSP1 (1.5 μM in TNM buffer supplemented with 0.005% (v/v) Tween-20) was immobilized on streptavidin-coated biosensors (Super Streptavidin/SSA Dip and Read Biosensors, ForteBio). The sensors were then quenched with 27 μM biocytin (Sigma Aldrich), and binding kinetics were measured at 25° C. on a ForteBio Octet Red 96e instrument. Dissociation was initiated after 90 s. Reference sensors were quenched with 27 μM biocytin. Raw data was double referenced, and a global exponential regression 1:1 model was applied for kinetic analyses. Data are mean values±S.D. of at least n=4 measurements. KD, dissociation constant; Kon, on-rate constant; Koff, off-rate constant.
We also determined the CPBA and iFSP1 on-rate, off-rate and dissociation constants, which are associated with the binding and unbinding reaction of target and inhibitor. […]

Compound	effect in human cancer cell lines (cancer cell lines; human cancer cell lines)	effect in mouse or rat cancer cell lines (cancer cell lines; mouse or rat cancer cell lines (FIG. 20A))	affinity for human FSP1 (human FSP1)	sensitization of cancer cell lines to FIN56-induced ferroptosis (cancer cell lines; CPBA 100 μM, iFSP1 10 μM (3 μM in HepG2), 16 h)
Cc1ccc(-c2c(C#N)c(N)n3c(nc4ccccc43)c2C#N)cc1 [iFSP1, reference compound]	able to inhibit endogenous and overexpressed FSP1 in human cancer cell lines, and thereby sensitize these cells to ferroptotic death	completely ineffective in mouse or rat cancer cell lines	the affinity of iFSP1 for human FSP1 exceeds the affinity of CPBA for human FSP1	–
O=C(Nc1ccccc1C(=O)O)c1ccc(Oc2ccc(C(=O)Nc3ccccc3C(=O)O)cc2)cc1 [CPBA, 2-[[4-[4-[(2-carboxyphenyl)carbamoyl]phenoxy]benzoyl]amino]-benzoic acid]	–	–	the affinity of iFSP1 for human FSP1 exceeds the affinity of CPBA for human FSP1	sensitizes cancer cell lines of different species and tumor types to ferroptosis
